Measurements published in article PMC11868579 (Nature Communications, 2024).
“And” between values parts separate entries of the source, which are not always exact repeats. Identical values can stand only once.

Key:
[1] = test system: H1299 eIF4E-dTAG clones proteome; experiment: Global proteome profiling (DIA LC-MS/MS); assay type: cell-based, human; conditions: 500 nM, 72 hr
Description: Cells (1 × 10^5 cells/ml) were lysed using SDS-free lysis and the lysate made up to 1 mL. Disulphide bounds were disrupted by reduction and alkylation. DTT was added to sample with a final concentration of 10 mM and incubated at 37 °C for 30 min. Iodoacetamide was then added to sample with a final concentration of 55 mM and incubated in the dark at room temperature for 30 min. The protein mixture was then enriched through a solid phase (SPE) C18 column. The C18 column was activated with 1 ml methanol at a rate of 3 drops/second, followed by 1 ml 0.1% formic acid to condition the column. The diluted protein mixture was loaded onto the column at 1 drop/sec, the column was washed with 3 ml 0.1% formic acid and enriched proteins were eluted with 800 μl 75% acetonitrile at a rate of 0.5 drops per second and the eluate was freeze-dried. The freeze-dried proteins were redissolved in 20 μl 50 mM ammonium bicarbonate and quantified according to the manufacturer’s instructions (Pierce Quantitative Fluorometric Peptide Assay cat# 23290). A small aliquot was removed for PAGE QC analysis on a 12% polyacrylamide gel. The remainder of the protein samples were digested with trypsin at a ratio of 1:20 for enzyme and proteins (w/w). The mixture was incubated for 14–16 h at 37 °C.
For DDA (Data Dependent Acquisition) library construction (Nano-LC-MS/MS) the dried peptide samples were reconstituted with mobile phase A (2% ACN, 0.1% FA), centrifuged at 20,000 g for 10 minutes, and the supernatant was taken for injection. Separation was carried out by a Thermo UltiMate 3000 UHPLC liquid chromatograph. […] The main parameters were set: ion source voltage was set to 1.9 kV, MS1 mass spectrometer scanning range was 350 ~ 1650 m/z; resolution was set to 120,000; maximal injection time (MIT) 90 ms; MS/MS collision type HCD, collision energy NCE 30; MS/MS resolution 30,000, MIT was auto mode, dynamic exclusion duration 120 seconds. The start m/z for MS/MS was fixed to auto mode. Precursor for MS/MS scan satisfied: charge range 2+ to 6 + , top 30 precursors with intensity over 2E4. AGC was: MS 300%, MS/MS 100%.
Peptides separated by liquid phase chromatography were ionized by a nanoESI source and then passed to an Orbitrap Exploris480 (Thermo Fisher Scientific, San Jose,CA) to acquire mass spectrometry data in DIA mode. The main parameters were set: ion source voltage was set to 1.9 kV, MS1 mass spectrometer scanning range was 400 ~ 1250 m/z; resolution was set to 120,000; maximal injection time (MIT) 90 ms; 400 ~ 1250 m/z was equally divided to 50 continuous windows MS/MS scan. MS/MS collision type HCD, collision energy NCE 30; MIT was auto mode. Fragment ions were scanned in Orbitrap, MS/MS resolution 30,000. AGC was: MS 300%, MS/MS 1000%.
DIA data was analysed using the iRT peptides for retention time calibration. Then, based on the target-decoy model applicable to SWATH-MS, false positive control was performed with FDR 1% to obtain significant quantitative results. MSstats was used for the statistical evaluation of significant differences in proteins or peptides from different samples. The core algorithm is linear mixed effect model that pre-processes the data according to the predefined comparison group, and then performed the significance test based on the model. Thereafter, differential protein screening was performed based on the fold change >2 and p-value < 0.05 as the criterion for the significant difference.

[2] = test system: MCL1 protein expression; experiment: Immunoblot of MCL1 in eIF4E-dTAG clones and rescue models; assay type: cell-based, human; conditions: eIF4E-dTAG clones
Description: One sample t and Wilcoxon tests (two-sided), using 100% as hypothetical control value, were performed and compared with the control in each cell line. b, c Real-time cell growth measurements monitored every 4 h over a 6-day period. Cell confluency (%) was calculated using Incucyte Zoom software and (mean ± SEM n = 3 biological replicates). Ordinary one-way ANOVA with Tukey multiple comparisons test compared treatment with the control in each cell line. […] Vinculin was used as loading control. H1299 (PAR) cell lines were treated with 1 μM dTAG^V-1 only as qualitative control. Vinculin was used as loading control. […] Significant p-values (< 0.05) are shown on the plots and the source data is located in the Source Data file.
After seeding overnight in 6 well plates (Corning, cat#353046), cells were treated with compounds for the indicated times and concentration, harvested and the cell pellet lysed on ice in cell lysis buffer (Cell Signaling, cat#9803), supplemented with 1x Halt^TM protease inhibitor cocktail (Fisher Scientific, cat#78429) and cOmplete^TM protease inhibitor cocktail (Sigma-Aldrich, cat#11836153001) for 1 hr. Protein was quantified using BCA protein kit (Fisher Scientific, cat#23225). Western blot was performed using NuPAGE^TM 4–12% Bis-Tris gels (Fisher Scientific, cat#NP0336BOX) and transferred using the Invitrogen iBLOT^TM gel transfer device system (Fisher Scientific, Cat#IB21001). […] All primary antibodies were diluted (1:1000) in 5% BSA (Sigma-Aldrich, cat#A7906) in 1x TBS and 0.1% Tween 20 (Sigma-Aldrich, cat#P1379), except for vinculin (1:2000) that was diluted in casein blocker (Sigma-Aldrich, cat#1610782). This was followed by incubation with the secondary HRP-conjugated antibodies (anti-mouse HRP, Bio-rad, Watford, UK, cat#1705047; anti-rabbit HRP, Sigma-Aldrich, cat#NA934) in casein for 1 h at RT. ECL HRP substrate (SuperSignalTM West Pico, Fisher Scientific, cat#34578) was then added to detect protein targets by chemiluminescence and images acquired using the ChemiDocTM system (Bio-Rad). Quantitative densitometry analysis of protein bands was performed using Image J v1.53 software.

[3] = molecular target: T1, eIF4E minor variant D127N (N127) (Homo sapiens, UniProt P06730, D127N); experiment: Isothermal titration calorimetry, eIF4E minor variant; assay type: binding; conditions: for Kd: ITC; for Kd / LE (ligand efficiency): minor variant D127N
T1 construct: made in house; host or cells: E. coli BL21-CodonPlus (DE3)-RIPL
Description: ITC experiments were performed on either a MicroCal VP-ITC or a MicroCal Auto-ITC200 at 25 °C in a buffer comprising 50 mM HEPES, 100 mM NaCl, 1 mM TCEP and 5% DMSO at pH 7.5. Typical titrations on the MicroCal VP-ITC were performed using 17 × 16.4 µL injections with a 250 s spacing between each injection and with a stirring speed of 307 rpm. Typical titrations on the MicroCal Auto-ITC200 were performed using 12 × 3 µL injections with a 150 s spacing between each injection and with a stirring speed of 750 rpm. ITC data analyses were performed with Origin 7.0 software using the “One Set of Sites” model.

[4] = test system: c-Myc-activity; experiment: c-Myc-regulated luciferase reporter in SW620 cells; assay type: cell-based, human; design: CMV, Average / c-Myc, Average: unit not given here; conditions: for c-Myc, Average / CMV, Average: SW620; for c-Myc, Average: c-Myc-regulated firefly luciferase reporter; for CMV, Average: constitutive CMV promoter-regulated renilla luciferase reporter
Description: Luminescence was measured using the Dual-glo luciferase assay (mean ± SEM from 3 biological replicates). b SW620 cells were transfected with a c-Myc-regulated firefly luciferase expression reporter or a constitutive CMV promoter-regulated renilla luciferase reporter. Cells were treated for 24 hr with 1 or 10 µM compound 4 or the […] kinase inhibitor AZD8055 as positive control (mean ± SEM from 3 biological replicates). An ordinary one-way ANOVA with Tukey multiple comparisons test was performed comparing c-Myc-regulated firefly luciferase expression or CMV-regulated Renilla luciferase expression following the different treatments. For c-Myc-regulated firefly luciferase expression, all significant p values […]
were <0.0001. […]
Source data is located in the Supplementary Source Data file

[5] = test system: cap-dependent and cap-independent (IRES) protein synthesis; experiment: Bicistronic protein synthesis reporter in H1299 cells; assay type: cell-based, human; conditions: H1299; 100 μM, 24 hr; normalisation not stated
Description: H1299 cells were transfected with a biscistronic vector using Lipofectamine 3000 transfection reagent (Fisher Scientific, cat#L3000008) for 24 hr and then treated with compounds for further 24 h. Luminescence was measured after 24 h of compound treatment using the Dual Glo luciferase reporter assays as above.

T1 sequence (P06730 36-217 D127N): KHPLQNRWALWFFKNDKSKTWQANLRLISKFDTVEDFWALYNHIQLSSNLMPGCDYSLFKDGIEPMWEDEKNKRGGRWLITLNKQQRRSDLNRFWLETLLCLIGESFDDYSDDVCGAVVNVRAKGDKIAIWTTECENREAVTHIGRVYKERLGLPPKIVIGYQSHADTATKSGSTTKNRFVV

Which “Normalised signal intensity, A2M” value ([1]; H1299 C2-2 dTAG clone) does the source give for `CC[C@H](C(=O)N1CCCC[C@H]1C(=O)O[C@H](CCc1ccc(OC)c(OC)c1)c1ccccc1OCC(=O)NCCCCCCC(=O)N[C@H](C(=O)N1C[C@H](O)C[C@H]1C(=O)N[C@@H](C)c1ccc(-c2scnc2C)cc1)C(C)(C)C)c1cc(OC)c(OC)c(OC)c1` [dTAG-v1] here?
Its value is 17.256.

And the “Normalised signal intensity, AAAS (first entry, r5)” value ([1]; H1299 C2-2 dTAG clone)?
Its value is 16.230.

And the “Normalised signal intensity, AAAS (second entry, r6)” value ([1]; H1299 C2-2 dTAG clone)?
The value was 19.251.

And the “Normalised signal intensity, AACS” value ([1]; H1299 C2-2 dTAG clone)?
The value was 16.229.

And the “Normalised signal intensity, A2M” value ([1]; H1299 C3-1 dTAG clone)?
Its value is 17.317.

And the “Normalised signal intensity, AAAS (first entry, r5)” value ([1]; H1299 C3-1 dTAG clone)?
The value was 15.976.

What about the “Normalised signal intensity, AAAS (second entry, r6)” value ([1]; H1299 C3-1 dTAG clone) of the same molecule?
Its value is 18.995.

And the “Normalised signal intensity, AACS” value ([1]; H1299 C3-1 dTAG clone)?
Its value is 16.150.

What about the “Normalised signal intensity, A2M” value ([1]; H1299 N2-1 dTAG clone) of the same molecule?
Its value is 17.029.

What about the “Normalised signal intensity, AAAS (first entry, r5)” value ([1]; H1299 N2-1 dTAG clone) of the same molecule?
Its value is 15.914.

And the “Normalised signal intensity, AAAS (second entry, r6)” value ([1]; H1299 N2-1 dTAG clone)?
The value was 19.083.

What about the “Normalised signal intensity, AACS” value ([1]; H1299 N2-1 dTAG clone) of the same molecule?
The value was 15.496.

And the “Normalised signal intensity, A2M” value ([1]; H1299 N3-2 dTAG clone)?
Its value is 16.465.

What about the “Normalised signal intensity, AAAS (first entry, r5)” value ([1]; H1299 N3-2 dTAG clone) of the same molecule?
The value was 15.682.

What about the “Normalised signal intensity, AAAS (second entry, r6)” value ([1]; H1299 N3-2 dTAG clone) of the same molecule?
Its value is 18.655.

And the “Normalised signal intensity, AACS” value ([1]; H1299 N3-2 dTAG clone)?
The value was 16.041.

Which “MCL1 protein after treatment” value [2] does the source give for `CC[C@H](C(=O)N1CCCC[C@H]1C(=O)O[C@H](CCc1ccc(OC)c(OC)c1)c1ccccc1OCC(=O)NCCCCCCC(=O)N[C@H](C(=O)N1C[C@@H](O)C[C@@H]1C(=O)N[C@@H](C)c1ccc(-c2scnc2C)cc1)C(C)(C)C)c1cc(OC)c(OC)c(OC)c1` [neg-dTAG^V-1, reference compound] here?
The value was “Loss of MCL1 protein was not observed”.

`O=C(O)C1(c2ccc(Cl)cc2)CCCC1` [Compound 2, 1-(4-chlorophenyl)cyclopentane-1-carboxylic acid] was tested. Which Kd [3] did it give?
The Kd was 7400 µM.

What about the “LE (ligand efficiency)” value [3] of the same molecule?
The value was 0.19 (kcal/mol)/heavy atom.

With `COc1ccc(-c2ccc3c(N4CCOC[C@@H]4C)nc(N4CCOC[C@@H]4C)nc3n2)cc1CO` [AZD8055, reference compound] as the molecule, how does the “c-Myc, Average” value ([4]; 1μM) read?
The value was 19.11.

And the “CMV, Average” value ([4]; 1μM)?
The value was 86.61.

And the “c-Myc, Average” value ([4]; 10μM)?
Its value is 13.82.

What about the “CMV, Average” value ([4]; 10μM) of the same molecule?
Its value is 130.75.

And the “activity in c-Myc reporter assay” value ([4]; SW620 cells, 1 or 10 µM, 24 hr)?
Its value is “clearly inhibited activity”.

Which “protein synthesis reporter signal (cap-dependent luciferase / IRES luciferase), replicate values” [5] does the source give for `C[C@@H]1C[C@@H]([C@H](O)CC2CC(=O)NC(=O)C2)C(=O)[C@@H](C)C1` [CHX, cycloheximide, reference compound] here?
Its value is 0.353 and 0.410 and 0.685 and 0.311 and 0.478 and 0.325.

Which Kd [3] does the source give for `CC(O)c1ccc(-c2ccccc2F)cc1` (stereo not drawn) [Compound 3, 1-{2'-fluoro-[1,1'-biphenyl]-4-yl}ethan-1-ol] here?
The Kd was 20 µM.

And the improvement in affinity ([3]; compound 3 versus compound 1)?
Its improvement in affinity is 20 fold.

What about the “LE (ligand efficiency)” value [3] of the same molecule?
The value was 0.4 (kcal/mol)/heavy atom.

With `Oc1cccc(-c2ccccc2)c1` [Compound 1, [1,1'-biphenyl]-3-ol] as the molecule, how does the Kd [3] read?
Its Kd is 400 µM.

And the “LE (ligand efficiency)” value [3]?
Its value is 0.36 (kcal/mol)/heavy atom.
